According to paper PMC7607171, “Optimized low‐dose combinatorial drug treatment boosts selectivity and efficacy of colorectal carcinoma treatment” (Molecular Oncology, 2020):
“And” between values parts separate entries of the source, which are not always exact repeats. Equal values may be shown once. Read-outs that look alike come from different tables or passages of the source.

Assays:
[1] = Pharmacokinetics, dried blood spot LC-MS/MS, mice with DLD1 tumors; format: in vivo; details: for Tmax / AUC(0-t) / Cmax: Swiss Nu/nu, mouse, whole blood (dried blood spot), po, regorafenib 15, erlotinib 12.5, selumetinib 5, vemurafenib 75 mg/kg; for AUC(0-t) / Cmax: whole blood, mean ± SD; for AUC(0-t): oral, read-out: AUC0-24h; for increase of AUC as part of the ODC vs single-drug treatment: mice with DLD1 tumors, AUC0-24h
Procedure: The pharmacokinetic (PK) study was performed using the dried blood spot method. Mice were treated with CTRL, ODCs, and corresponding monotherapies as described above. To determine the disposition in blood in the first 24h, blood samples (5 µL/mouse) were collected from the tail vein (n = 4 mice) at 2h, 4h, 8h, and 24h time points and transferred onto paper (a filter paper 903 protein saver card from Whatman (MA, USA)). A disk with the entire spot was punched from the paper card and transferred to the HPLC vial tube. Hundred µL of MeOH containing a mix of internal standards was added, and the tube was vortex‐mixed for about 1 min before injecting 10 µL into the LC‐MS/MS system. The LC‐MS/MS system consisted of an API 4,000 triple quadrupole mass spectrometer (AB sciex, Concord, ON, Canada) controlled by analyst 1.6.1 software. The mass spectrometer was operated in the multiple reaction monitoring (MRM) mode with positive electrospray ionization. The instrument was coupled with an Agilent series 1100 (Waldbronn, Germany) LC system. Chromatography was performed on a Phenomenex Kinetex C18 analytical column (50 mm x 2.1 mm, 2.6 um; Torrance, CA, USA). The flow rate was 0.5 mL/min using gradient elution conditions. The method was fully validated before application to this pharmacokinetic study.

[2] = Clinical plasma pharmacokinetics in patients, plasma concentration limit calculation; format: in vivo; details: average plasma concentration calculated from AUC0-24h in patients
Procedure: To select for clinically relevant doses, the clinically attainable drug concentration measured in the blood plasma of patients after treatment is used to calculate the concentration limit for in vitro experiments. […] The average drug concentration is calculated from the AUC0–24h and is implemented as the plasma concentration limit (PCL) which drug dose selection must remain below for in vitro experiments. If a drug is FDA approved, the AUC0–24h selected is the one corresponding to the recommended dose in clinical practice. If a drug is in clinical trials, the AUC0–24h selected is the one corresponding to the maximum tolerated dose in early stage clinical trials. Note, experiments were conducted with the most current PCL calculated from the AUC0–24h information available at the start of experiments (December 2017), see Table S4.

[3] = Serum and intratumor drug concentration at experimental endpoint, DLD1 model; format: in vivo, mice; details: for concentration at 1 h / Kp at 1 h: Swiss Nu/nu, mouse, oral; for concentration at 1 h: 1h post-treatment at endpoint (day 15); for Kp at 1 h: tumor vs serum, read-out: ratio tumor vs serum; for Kp at 1 h / ratio ODC vs single drug: DLD1 model
Procedure: At the experimental endpoint, plasma and tumors were collected 1h post‐treatment and part of the tumor tissue was used to determine the intratumor drug concentrations. Plasma and tumor samples were analyzed using the same LC‐MS/MS method used for drug determination in DBS. Before analysis, tumor tissues were homogenized in a 1 mL mixture of water/acetonitrile (30/70). Hundred uL of homogenates were transferred into new tubes and 50 µL of acetonitrile, as well as 50 µL of a mix of internal standards in MeOH were added. Tubes were vortexed and centrifuged for 10 min at 9,000 rpm. The supernatant (100 µL) was evaporated under nitrogen and reconstituted in 100 µL of acetonitrile with 0.1% formic acid/water with 0.1% formic acid (30/70). 10 µL was then injected into the LC‐MS/MS system. Plasma samples were spotted onto the same paper used for whole blood analysis and were extracted and analyzed using the same methods as used for DBS.

SW620 tumors = experiment: Subcutaneous xenograft tumor growth; format: in vivo, Swiss nu/nu mice
Procedure: All procedures including animal use were performed in accordance with the Institutional Ethical Committee of Animal Care in Geneva and the Swiss Cantonal Veterinary Office (Authorization number GE‐136‐19). Briefly, female and male Swiss nu/nu mice aged 6–8 weeks were obtained from Charles River (Écully, France). For subcutaneous xenografts mice were inoculated in the left flank with 5x10^6 DLD1 or SW620 cells suspended in 100 µL of cell culture medium, supplemented with 1% FBS. Treatment was initiated when palpable tumors had formed (approximately 30 mm^3) on day 4 for DLD1 and day 5 for the SW620 model.
Treatment was initiated once tumor growth was confirmed with bioluminescence measurements. Drugs were administered through oral gavage based on average body weight of the males (100 µL/mouse) and females (80 µL/mouse) at various concentrations, see Tables S10 and S11.
Solution A: step (1) 30% PEG 400 + 5% propylene glycol + 0.5% Tween 80 and (2) 64.5% sterile H2O. Solution B: step (1) 10% DMSO, (2) 30% PEG 300 + 5% Tween 80 and (3) 55% sterile H2O. Vemurafenib was prepared 2x concentrated (half or three/sixth of total solution), and the remaining drugs were prepared 6x concentrated (one/sixth of total solution), after which drugs were diluted to prepare 1x drug concentrations for the ODC or single drugs using the other drugs or complete solvent solutions without drugs for lower concentrations. FOLFOX was administered as 6 mg/kg oxaliplatin two hours before administration of 90 mg/kg leucovorin and 50 mg/kg (DLD1) or 25 mg/kg (SW620) 5‐fluorouracil at day 1 and a repeat of 5‐fluorouracil dosing on day 2.
The Bliss independence model can be used to evaluate the drug interaction potential of a drug mixture. The model is based on the principle that each drug has an independent drug mechanism of action, but all contribute to a common result (e.g., cell death or tumor volume inhibition). The model is based on the probability theory and requires the drug activity of each drug at the selected dose to predict the inhibition rate (IR) at additive doses. For in vivo tumor volume results, we predicted the IR based on the fraction of tumor volume remaining after single‐drug treatment of each of the drugs vs 100% CTRL (F1,2,3,4), using the following formula: IR = […].

[4] = given as part of DLD1-specific ODC
[5] = serum, as part of ODC, regorafenib 15, erlotinib 12.5, selumetinib 5, vemurafenib 75 mg/kg, read-out: concentration serum
[6] = serum, single drug, regorafenib 15, erlotinib 12.5, selumetinib 5, vemurafenib 75 mg/kg, read-out: concentration serum
[7] = tumor (DLD1), as part of ODC, DLD1 tumor, doses as E156, read-out: concentration tumor
[8] = tumor (DLD1), single drug, DLD1 tumor, doses as E156, read-out: concentration tumor
[9] = regorafenib 30 mg/kg, Exp 4, Day 22
[10] = regorafenib 30 mg/kg, Exp 6, Day 20
[11] = regorafenib 30 mg/kg, Exp 8, Day 19
[12] = selumetinib 0.2 mg/kg, Exp 6, Day 20
[13] = selumetinib 0.2 mg/kg, Exp 8, Day 19
[14] = selumetinib 1 mg/kg, Exp 4, Day 22
[15] = selumetinib 10 mg/kg, Exp 4, Day 22
[16] = vemurafenib 75 mg/kg, Exp 6, Day 20

Compound	Tmax [1, 4]	AUC(0-t) [1, 4]	Cmax [1, 4]	Tmax ([1]; mono)	AUC(0-t) ([1]; mono)	Cmax ([1]; mono)	increase of AUC as part of the ODC vs single-drug treatment [1]	PCL (plasma concentration limit) [2]	concentration at 1 h [3, 5]	concentration at 1 h [3, 6]	concentration at 1 h [3, 7]	concentration at 1 h [3, 8]	Kp at 1 h ([3]; as part of ODC)	Kp at 1 h ([3]; single drug)	ratio ODC vs single drug ([3]; serum)	ratio ODC vs single drug ([3]; tumor)	other results
CNC(=O)c1cc(Oc2ccc(NC(=O)Nc3ccc(Cl)c(C(F)(F)F)c3)c(F)c2)ccn1 [regorafenib]	4 h	49400 ± 2980 ng·h/mL	3380 ± 490 ng/mL	8 h	17500 ± 5790 ng·h/mL	1190 ± 690 ng/mL	2.8 x	4.34 µM and 4.3 µM	1830 ± 540 ng/mL	880 ± 250 ng/mL	8670 ± 5530 ng/g	1540 ± 680 ng/g	4.74	1.76	2.09	5.62	% CTRL (tumor volume) (SW620 tumors; [9]): 117 45 20 % CTRL; Volume (SW620 tumors; [9]): 567 220 98 mm^3; % CTRL (tumor volume) (SW620 tumors; [10]): 90 78 35 % CTRL; Volume (SW620 tumors; [10]): 468 407 182 mm^3; % CTRL (tumor volume) (SW620 tumors; [11]): 44 18 10 % CTRL; Volume (SW620 tumors; [11]): 278 111 64 mm^3
Cn1cnc2c(F)c(Nc3ccc(Br)cc3Cl)c(C(=O)NOCCO)cc21 [selumetinib]	2 h	24800 ± 8250 ng·h/mL	3830 ± 1640 ng/mL	2 h	15200 ± 7590 ng·h/mL	1220 ± 330 ng/mL	1.6 x	0.60 µM and 0.6 µM	3490 ± 900 ng/mL	2500 ± 1080 ng/mL	4530 ± 1950 ng/g	1980 ± 660 ng/g	1.3	0.79			% CTRL (tumor volume) (SW620 tumors; [12]): 76 41 21 % CTRL; Volume (SW620 tumors; [12]): 393 214 107 mm^3; % CTRL (tumor volume) (SW620 tumors; [13]): 93 5 3 % CTRL; Volume (SW620 tumors; [13]): 588 30 21 mm^3; % CTRL (tumor volume) (SW620 tumors; [14]): 67 55 24 % CTRL; Volume (SW620 tumors; [14]): 323 265 118 mm^3; % CTRL (tumor volume) (SW620 tumors; [15]): 43 20 9 % CTRL; Volume (SW620 tumors; [15]): 209 95 43 mm^3
CCCS(=O)(=O)Nc1ccc(F)c(C(=O)c2c[nH]c3ncc(-c4ccc(Cl)cc4)cc23)c1F [vemurafenib]	4 h	14400 ± 2740 ng·h/mL	1050 ± 360 ng/mL	2 h	2180 ± 220 ng·h/mL	270 ± 80 ng/mL	6.6 x	11.1 µM	910 ± 380 ng/mL	620 ng/mL	1650 ± 1000 ng/g	790 ng/g	1.81	1.28	1.48	2.09	% CTRL (tumor volume) (SW620 tumors; [16]): 65 42 21 % CTRL; Volume (SW620 tumors; [16]): 337 219 109 mm^3; % CTRL (tumor volume) (SW620 tumors; vemurafenib 75 mg/kg, Exp 8, Day 19): 94 48 58 % CTRL
